Assay results from publication PMC7053711, “A G protein–coupled receptor mediates neuropeptide-induced oocyte maturation in the jellyfish Clytia” (PLoS Biology, 2020).
“Also recorded” adds a separate entry of the source. Peptide text beside a SMILES is read from it.

Tests used:
[1] = tested on: Platynereis FLamide receptor; assay: Positive control of deorphanization assay, luminescence; assay type: cell-based; details: 1 μM AKYFL-NH2
From the text: Fig 1 Identification of the Clytia MIHR. (A) Diagram of a Clytia gonad showing the different tissues used for RNA-seq and GPCR expression comparisons. A total of 536 putative GPCRs identified in Clytia mixed-stages transcriptome were assigned to the three main GPCR classes (A, B, C) or “other” based on Pfam signatures. The 16 top candidate MIH GPCRs were selected based on oocyte enrichment, relatedness to known bilaterian class-A neuropeptide GPCRs, and Pfam information. (B) Luminescence response of CHO-K1 cells expressing the putative Clytia MIH GPCR treated with neuropeptide mixes lacking MIH activity (purple bars), MIH tetrapeptides identified from C. hemisphaerica (blue bars) or Cladonema radiatum (green bars), or related penta- and tripeptides previously shown to be ineffective in triggering oocyte maturation in vivo (red bars). Empty pcDNA3.1 vector was used as negative control and Platynereis FLamide and its receptor as a positive control (gray bars). Peptide concentrations all 1 μM. Absolute units of luminescence were normalized using the positive control; data are shown as mean ± standard error of the mean (n = 3). […] Luminescence values were normalized relative to the maximum of fitted dose–response curves and are shown as mean ± standard error of the mean (n = 3). Half maximal effective concentration (EC50) values were calculated as means of 3 independent experiments. […]

[2] = tested on: MIHR mutant (n5-23, n5-13) isolated female gonads; assay: Gonad spawning assay, MIHR mutant isolated gonads; set-up: species or system Clytia hemisphaerica; details: isolated MIHR mutant gonads, 4 mM Br-cAMP, washed after 5 minutes
Description: We performed a series of oocyte maturation and spawning assays, comparing the responses of wild-type and MIHR mutant isolated gonads and oocytes to different stimuli (Fig 4).
Sexually mature MIHR mutant medusae from colonies n5-13 and n5-23 and wild-type medusae were cultured on the same day–night cycle. Individual gonads were dissected in the evening after afternoon spawning. To test the light response, one group of each was transferred to 100 μL MFSW in wells of 96-well plastic plates, covered overnight, and re-exposed to white light the following day. To test responses to MIH and cAMP, other groups of dissected gonads were cultured overnight in constant light, then transferred to 96-well plastic plates for two hours. MIH was added to wells as an equal volume of 200 nM WPRPamide (GenScript) stock in MFSW was added to give a final concentration of 100 nM. Alternatively, a stock of 20 mM bromo adenosine 3′,5′cyclic monophosphate (Br-cAMP–Fluka; Sigma Aldrich) in distilled water was added to give a final concentration of 4 mM. Gonads were washed after 5 minutes incubation in Br-cAMP. Oocyte maturation was scored after 30 minutes as germinal vesicle breakdown (GVBD), i.e., visible dissolution of the oocyte nuclear membrane upon entry into M phase, which in all cases was followed by spawning about 1 hour later.
(§1) Supplementary file pbio.3000614.s013.xlsx: S3 Data Numerical data corresponding to Fig 4A and 4C. The first tab collects all the raw data from 3 independent gonad spawning assays. Information corresponding to the Fisher exact tests is also shown. […] The means and standard deviations were used to prepare the graph in Fig 4C. Information corresponding to the Fisher exact tests is also shown. (XLSX) Click here for additional data file.

[3] = tested on: fully grown oocytes isolated from WT gonads; assay: Oocyte maturation assay, wild-type isolated oocytes (GVBD); assay type: cell-based, Clytia hemisphaerica
From the text: (§2) Fig 4 Oocyte maturation failure in MIHR mutant medusae. Oocyte maturation assays performed using isolated gonads (A, B) or isolated oocytes (C) from MIHR mutant jellyfish compared to WT. In A and C, bar heights represent mean percentages of 3 independent experiments and error bars show standard deviations. Total gonad or oocyte numbers for each treatment are indicated in gray. (A) Spawning response of isolated gonads from WT and n5-23 female medusae. Three treatments were compared as indicated above each panel: Light: light stimulation after incubation in the dark; MIH: treatment of light-maintained gonads with 100 nM WPRPamide; cAMP: treatment of light-maintained gonads with 4 mM Br-cAMP. […] Full datasets from three independent experiments are available in S3 Data. (B) Light microscope images illustrating gonads from an equivalent experiment performed with n5-13 female MIHR mutant medusae 120 minutes after the indicated treatments. Scale bar: 500 μm. […] Full datasets from 3 independent experiments are available in S3 Data. Br-cAMP, bromoadenosine 3′,5′-cyclic monophosphate; cAMP, cyclic adenosine monophosphate; KO, knockout; MIH, maturation-inducing hormone; MIHR, MIH receptor; WT, wild-type.
(§3) Fully grown oocytes were isolated manually from dissected gonads of wild-type and MIHR KO mutant jellyfish prepared as above. Maturation assays were performed in wells of 96-well plates or small plastic petri dishes lined with 2% agarose in MFSW. Spontaneous maturation occurs at a low frequency in control oocytes. To test MIH-induced maturation, 10 μL WPRPamide from 1 μM solution in MFSW was added to a final concentration of 100 nM. In some experiments, Br-cAMP from a 20 mM stock in H2O was used at a final concentration of 4 mM. GVBD was scored at 30 minutes, every 5 minutes, depending on experiments.
as §1

[4] = tested on: fully grown oocytes isolated from MIHR mutant (n5-23) gonads; assay: Oocyte maturation assay, MIHR mutant isolated oocytes (GVBD); assay type: cell-based, Clytia hemisphaerica
From the text: as §2, §3, §1

hydrozoan oocytes = details: cell-permeable analogue of cAMP; ref [3],[21]; cited from earlier work
From the text: We performed a series of oocyte maturation and spawning assays, comparing the responses of wild-type and MIHR mutant isolated gonads and oocytes to different stimuli (Fig 4). […] I ...

Clytia MIHR [5] = assay: GPCR deorphanization assay, luminescence response to peptides at 1 μM (CHO-K1 cells, Gα-16, GFP-apoaequorin); assay type: cell-based, Clytia hemisphaerica; details: peptide 1E-6M, normalised to Platynereis FLamide receptor + 1 μM AKYFL-NH2, n = 3
From the text: We used a cell culture–based GPCR deorphanization assay to identify the MIH receptor from our candidate shortlist. cDNAs for each candidate were transfected into Chinese Hamster ovary K1 (CHO-K1) cells along with the promiscuous Gα protein Gα-16, and an aequorin-GFP luminescence reporter that measures Ca^2+ mobilization downstream of this heterologous Gα protein [27, 28]. We first screened the 16 candidate Clytia GPCRs against a mixture of 33 synthetic amidated peptides (including MIHs) predicted to be generated from previously identified putative Clytia neuropeptide precursors and one additional one identified from transcriptome data. Given our imperfect knowledge of pro-peptide processing in cnidarians, some of the synthetic peptides may not correspond to endogenous peptides. Only one of the 16 GPCRs was activated by this peptide mixture. This receptor responded well to all 4 synthetic Clytia MIH tetrapeptides, as well as to related Cladonema MIH peptides that can also activate Clytia oocyte maturation, but not to other Clytia peptide mixtures or poorly active MIH penta-/tripeptides. We termed this Clytia GPCR the Maturation Inducing Hormone Receptor (MIHR). The activity of individual peptides at 1 μM to stimulate the MIHR closely matched their in vivo ability to induce oocyte maturation (Fig 1B).
(§4) Cell culture GPCR ligand response assays were performed as described. Briefly, CHO-K1 cells were cultured in Ham’s F12 Nut Mix medium (Thermo Fisher Scientific) with 10% foetal bovine serum. Cells were seeded in 96-well plates at approximately 10,000 cells/well and transfected the following day with pcDNA3.1(+) plasmids encoding each of the 16 candidate Clytia GPCRs (S2 Text), the promiscuous Gα-16 protein [65], and a reporter construct GFP-apoaequorin [66] (60 ng each) using the transfection reagent TurboFect (Thermo Fisher Scientific). After 2 days of expression, the medium was removed and replaced with Hank’s balanced salt solution (HBSS) supplemented with 1.8 mM Ca2+, 10 mM glucose, and […] coelenterazine h (Promega, Madison, WI). After incubation at 37 °C for 2 hours, cells were tested by adding synthetic peptides (GenScript) in HBSS supplemented with 1.8 mM Ca2^+ and 10 mM glucose. A list of all synthetic peptides used is provided in S2 Table. Luminescence was recorded for 45 seconds in a plate reader (BioTek Synergy Mx or Synergy H4; BioTek, Winooski, VT). Data were integrated over the 45-second measurement period and recorded as technical triplicates in each case. Data were normalized using the response of Platynereis FLamide receptor to 1 μM AKYFL-NH2 [28]. Dose–response curves were obtained using concentrations between 0.01 nM and 100 μM for each peptide. Data for dose–response curves were recorded in triplicate for each concentration and the experiment was repeated independently 3 times. Dose–response curves were fitted with a four-parameter curve using Prism 6 (GraphPad, La Jolla, CA) and were normalized to the calculated upper plateau values (100% activation).
Supplementary file pbio.3000614.s011.xlsx: S1 Data Numerical data corresponding to Fig 1B. Raw luminescence values obtained in triplicate for each of the neuropeptide combinations tested against the MIHR in the deorphanization assay are provided. In the right-hand table, the raw luminescence values obtained in quadruple for the positive and negative controls are provided. In the lower table, means and standard errors of the mean of the luminescence values obtained for each neuropeptide combination and controls are also shown, as well as the values normalized to the positive control, which were used to prepare the graph shown in Fig 1B. MIHR, MIH receptor. (XLSX) Click here for additional data file.

Clytia MIHR [6] = assay: Dose–response curves of Clytia MIHR, luminescence (CHO-K1 cells, Gα-16, GFP-apoaequorin); assay type: cell-based, Clytia hemisphaerica; set-up: key to Span (best-fit value) / Bottom (best-fit value): % activation, normalized to fitted upper plateau (100%); details: for EC50: four-parameter fit, variable slope, triplicate; for HillSlope / LogEC50: best-fit value; for Bottom / Span / Top: best-fit value (luminescence)
Description: The Clytia MIH amidated peptides are produced from two precursor genes Che-pp4 (generating multiple copies of WPRAamide, WPRYamide, and WPRPamide) and Che-pp1 (multiple copies of WPRPamide and RPRGamide).
as §4
Supplementary file pbio.3000614.s012.xlsx: S2 Data Numerical data corresponding to Fig 1C. The first three tabs show statistical values obtained using Prism 6 software (GraphPad, La Jolla, CA) from the raw luminescence values for 3 independent dose–response experiments. The raw luminescence values are shown, as well as the values normalized with respect to the maximum. […] MIH, maturation-inducing hormone. (XLSX) Click here for additional data file.

[7] = 100 nM WPRPamide or 4 mM Br-cAMP
[8] = log(agonist) vs. response, variable slope (four parameters), fit of third dataset

Compound: AKYFL-NH2 [(+) Ctrl, ligand for Platynereis FLamide receptor]
- Normalised response (to positive control), mean [1]: 1

Compound: Nc1ncnc2c1nc(Br)n2[C@@H]1O[C@@H]2COP(=O)(O)O[C@H]2[C@H]1O [Br-cAMP, bromoadenosine 3′,5′-cyclic monophosphate, reference compound]
- oocyte maturation and spawning of MIHR mutant gonads, Br-cAMP treatment [2]: rescued meiotic maturation and spawning; also recorded: rescued the phenotype of MIHR mutant gonads, efficiently triggering oocyte maturation and spawning; also recorded: provoked oocyte maturation and spawning
- maturation of isolated WT oocytes [3, 7]: triggered maturation of WT oocytes
- time to visible GVBD, isolated WT oocytes [3, 7]: 20 to 30 min
- Percentage of Oocyte maturation, Mean ([3]; cAMP (4mM BrcAMP), WT, mean of 3 replicates, Sdev 14.23): 84.33
- maturation of isolated MIHR mutant oocytes, Br-cAMP ([4]; 4 mM Br-cAMP): promoted maturation of isolated fully grown MIHR mutant oocytes; also recorded: only Br-cAMP induced maturation of MIHR KO oocytes
- Percentage of Oocyte maturation, Mean ([4]; cAMP (4mM BrcAMP), MIHR KO, mean of 3 replicates, Sdev 6.00): 89.91
- hydrozoan oocyte maturation (hydrozoan oocytes): induces hydrozoan oocyte maturation

Compound: C[C@H](NC(=O)[C@H](CCCNC(=N)N)NC(=O)[C@@H]1CCCN1C(=O)[C@@H](N)Cc1c[nH]c2ccccc12)C(N)=O [WPRAa] (H-WPRA-NH2; N-terminus assumed)
- Normalised response (to positive control), mean (Clytia MIHR [5]): 0.2465
- EC50 (Clytia MIHR [6]; dataset/experiment 1): 140 nM
- EC50 (Clytia MIHR [6]; dataset/experiment 2): 940 nM
- HillSlope (Clytia MIHR [6]; first dataset): 1.505
- LogEC50 (Clytia MIHR [6]; first dataset): -6.854
- Bottom (Clytia MIHR [6]; first dataset): 1277
- Span (Clytia MIHR [6]; first dataset): 50384
- Top (Clytia MIHR [6]; first dataset): 51660
- Bottom (best-fit value) (Clytia MIHR [6]; [8]): 12.04
- HillSlope (best-fit value) (Clytia MIHR [6]; [8]): 1.48
- LogEC50 (best-fit value) (Clytia MIHR [6]; [8]): -6.272
- Span (best-fit value) (Clytia MIHR [6]; [8]): 87.97
- HillSlope (Clytia MIHR [6]; second dataset): 1.06
- LogEC50 (Clytia MIHR [6]; second dataset): -6.027
- Bottom (Clytia MIHR [6]; second dataset): 2165
- Span (Clytia MIHR [6]; second dataset): 21649
- Top (Clytia MIHR [6]; second dataset): 23814
